From paper PMC10002517, “Inhibition of Transglutaminase 2 as a Therapeutic Strategy in Celiac Disease—In Vitro Studies in Intestinal Cells and Duodenal Biopsies” (International Journal of Molecular Sciences, 2023)

Columns and labels:
[1] = target: T1, human transglutaminase 2 (TG2) (Homo sapiens, UniProt P21980); assay: TG2-mediated cross-linking (transamidation) of pepsin-/trypsin-digested gliadin (PTG) on immobilized TG2; type: biochemical; details: for TG2-mediated cross-linking of PTG: 10 nM TG2 coated, 10 µg/mL PTG, 1 h 37 °C, normalized to TG2 without inhibitor, mean ± SD, n = 4
T1 construct: purchased Zedira, Darmstadt, Germany T034
T1 sequence (P21980 1-687): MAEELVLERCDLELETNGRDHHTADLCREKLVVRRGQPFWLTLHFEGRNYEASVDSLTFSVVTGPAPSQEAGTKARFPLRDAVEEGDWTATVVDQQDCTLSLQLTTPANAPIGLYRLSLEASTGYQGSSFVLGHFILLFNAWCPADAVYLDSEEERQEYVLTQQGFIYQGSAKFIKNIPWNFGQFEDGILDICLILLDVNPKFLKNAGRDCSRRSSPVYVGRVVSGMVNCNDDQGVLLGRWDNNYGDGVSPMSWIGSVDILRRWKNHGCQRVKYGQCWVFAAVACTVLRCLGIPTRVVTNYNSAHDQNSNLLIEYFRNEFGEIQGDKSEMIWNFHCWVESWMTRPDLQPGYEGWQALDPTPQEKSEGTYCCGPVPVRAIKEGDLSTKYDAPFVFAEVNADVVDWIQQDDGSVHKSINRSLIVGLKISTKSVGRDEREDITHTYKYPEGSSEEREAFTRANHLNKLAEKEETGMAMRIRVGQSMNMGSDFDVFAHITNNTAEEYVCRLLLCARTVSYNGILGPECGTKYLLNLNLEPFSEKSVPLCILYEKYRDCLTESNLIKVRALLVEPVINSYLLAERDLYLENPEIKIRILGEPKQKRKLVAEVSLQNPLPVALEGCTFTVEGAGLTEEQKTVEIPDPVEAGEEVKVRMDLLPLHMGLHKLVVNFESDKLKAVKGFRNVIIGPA
Method: A tissue-culture-treated 96-well plate (83.3924, Sarstedt, Nümbrecht, Germany) was coated for 1 h at 37°C with 10 nM TG2 (T034, Zedira, Darmstadt, Germany) in 50 mM Tris, 1 mM EDTA, 5 mM CaCl2 (pH 7.5) buffer containing 10 mM DTT. After three washes with PBS, the plate was blocked with 2% bovine serum albumin (BSA, Carl Roth GmbH, Karlsruhe, Germany) in PBS for 30 min at room temperature. Then, incubation with 10 µg/mL of pepsin-/trypsin-digested gliadin (PTG, T004, Zedira) ± inhibitors was performed for 1 h at 37 °C. After three washes with PBS, the primary antibody directed against gliadin (1:1000, clone XGY4, Zedira) was applied in BSA 2% at 4 °C overnight on an orbital shaker. The next day, the secondary antibody directed against mouse IgG (1:1000; sc-516102, Santa Cruz Biotechnology, Dallas, TX, USA) was incubated in BSA 2% for 1 h at room temperature on an orbital shaker. After three washes with phosphate buffered saline (PBS), the HRP-substrate TMB (tetramethylbenzidine, Sigma-Aldrich, Darmstadt, Germany) was added (100 µL per well). Photometric quantitation at 655 nm was performed after 15 min using a Clariostar Plus (BMG Labtech, Ortenberg, Germany) microplate reader.

[2] = target: T2, TG2 in Caco-2 cell lysates (Homo sapiens, UniProt P21980); assay: Transglutaminase activity in Caco-2 whole cell lysates (5BP cross-linking); type: biochemical; details: 10 µM inhibitor (b1); lysate of differentiated Caco-2 cells incubated with 5BP and inhibitor overnight; mean ± SD, n = 3
T2 construct: endogenous in cells; host or cells: Caco-2 (differentiated; IFN-γ-stimulated in the monolayer assay)
T2 sequence (P21980 1-687): T1 sequence (P21980 1-687)
Method: The method to investigate TG2 activity from whole cell lysates was adapted from Lin et al.. In brief, 20 µg protein per cavity on the 96-well plate were incubated in 50 mM Tris, 1 mM EDTA, 5 mM calcium chloride (pH 7.5) buffer in the presence of 500 µM 5BP (5-biotinamidopentylamine, Thermo Fisher Scientific, Langenselbold, Germany) for the indicated time. After incubation, the plate was washed three times with PBS + 0.05% Tween. After blocking with 5% BSA in PBS for 1 h, the plate was incubated with 2 µg/mL streptavidin-Alexa Fluor 488 (Thermo Fisher Scientific) in 5% BSA. After 3 washing steps with PBS + 0.05% Tween, fluorometric evaluation was performed using a Clariostar Plus (BMG Labtech) microplate reader (no well scan mode, excitation 488 nm, emission 535 nm, fixed gain: 2000).

Caco-2 cells = assay: Resazurin-based cell viability assay (PrestoBlue HS); set-up: species or system human; details: confluent Caco-2 cells, 24 h in medium, n = 3
Method: The cell viability of Caco-2 cells was examined using PrestoBlue HS (A13261, (Thermo Fisher Scientific). In brief, Caco-2 cells (7–8 days after confluency) were incubated with PX-12 or ERW1041 at the indicated concentrations for 24 h in full medium. As a positive control, cells were incubated with 4% PFA for 10 min. After washing with PBS, cells were incubated with PrestoBlue HS diluted 1:10 in culture medium for 2 h at 37 °C. Fluorometric examination was conducted using a Clariostar Plus (no well scan mode, bottom optic measurement, excitation 545 nm, emission 600 nm, fixed gain: 800). Every experiment was performed in duplicates with at least three technical replicates. Normalization was performed against conditions, where cells were not treated with TG2 inhibitors.

[3] = tested on: uptake of P56-88 by Caco-2 cells; assay: Epithelial uptake of P56-88 by Caco-2 cells (confocal microscopy); type: cell-based, human; details: confocal microscopy
Method: For microscopic evaluation, Caco-2 cells were seeded on polymer-covered µ-slides (80826, Ibidi) and incubated for 1 h with labeled gliadin peptides in the presence of TG2 inhibitors. After three washes with PBS, cells were fixed with 4% paraformaldehyde. Nuclear staining was performed for 10 min using Hoechst fluorescent stain (1:1000 in PBS). Imaging was done using a confocal laser scanning microscope (TE2000-E, Nikon) and a 60× Plan Apo (NA 1.41) immersion oil objective. Processing of z-stacks, including 3D reconstruction, was performed using ImageJ [46]. For quantitation, z-stack images were taken with the same microscope settings. Using ImageJ, maximum intensity projections were obtained of the z-stack images, and the fluorescence intensity was measured within the whole image.

tumor cell lines = details: 10 µM; cited from earlier work
Method: To further examine the applicability of both substances, we analyzed their effect on the viability of Caco-2 cells. […] In those studies, however, viability was determined in tumor cell lines and not in differentiated int ...

[4] = up to a concentration of 100 µM
[5] = 1 h incubation with peptide and inhibitor, n = 3

Row | Structure (SMILES) | TG2-mediated cross-linking of PTG ([1]; 10 µM inhibitor) [%] | TG2-mediated cross-linking of PTG ([1]; 100 µM inhibitor) [%] | TG2 activity in Caco-2 cell lysates [2] [%] | cell viability (Caco-2 cells; 200 µM and 500 µM) | cell viability (Caco-2 cells; [4]) | uptake of P56-88 by Caco-2 cells ([3]; 100 µM inhibitor, 1 h) | uptake of P56-88 by Caco-2 cells [3, 5] | reduction of enzymatic modification of gliadin ([1]; at 10 µM and 100 µM) | cytotoxicity (tumor cell lines)
1 | O=C(NC[C@@H]1CC(Br)=NO1)[C@@H]1CCCN1C(=O)OCc1cnc2ccccc2c1 [ERW1041] | 48 ± 8 | 11 ± 2 | 45 ± 19 | significantly reduced cell viability | did not affect cell viability | nearly absent | reduced the uptake of P56-88 in a dose-dependent manner |  | 
2 | CCC(C)SSc1ncc[nH]1 (stereo not drawn) [PX-12, 2-[(1-methylpropyl)dithio]-1H-imidazole] | 15 ± 3 | 5 ± 1 | 12 ± 7 | significantly reduced cell viability | did not affect cell viability |  | did not affect the uptake of P56-88 | more than 80% | cytotoxic effects
